# Data as given in EPA's ToxValDB 9.5 (doi:10.2903/j.efsa.2010.1406).
# Columns and labels:
# [1] = subchronic; duration: 90 days
# [2] = subchronic, duration: 90 days, oral, diet
smiles,measurement,setting,value
"Cc1cc(SC(=O)CC(C)C)c(C)o1 [2,5-Dimethyl-3-thioisovalerylfuran]",NOEL,"Rattus norvegicus; subchronic, duration: 90 days",0.73 mg/kg-day
"CSC(=O)c1ccco1 [2-Furancarbothioic acid, S-methyl ester]",NOAEL,[1],6.7 mg/kg-day
"CC(=O)SC1=C(C)OCC1 [2-Methyl-3-thioacetoxy-4,5-dihydrofuran]",NOEL,"Rattus norvegicus; chronic, duration: 1 years, oral, diet",8.3 mg/kg-day
CC(=O)CC(C)SCc1ccco1 (centres undefined) [4-{[(Furan-2-yl)methyl]sulfanyl}pentan-2-one],NOAEL,Rattus norvegicus; [2],3.76 mg/kg-day
Cc1occc1SSSSc1ccoc1C [Bis(2-methyl-3-furyl) tetrasulfide],NOEL,"Rattus norvegicus; subchronic, duration: 90 days",0.56 mg/kg-day
Cc1occc1SSc1ccoc1C [Bis(2-methyl-3-furyl)disulfide],NOEL,Rattus norvegicus; [2],0.45 mg/kg-day
CCOC(=O)CCSCc1ccco1 [Ethyl 3-(furfurylthio)propionate],NOEL,"Rattus norvegicus; subchronic, duration: 90 days",17 mg/kg-day
"Cc1cc(SSc2cc(C)oc2C)c(C)o1 [Furan, 3,3'-dithiobis[2,5-dimethyl-]",NOEL,Rattus norvegicus; [2],0.45 mg/kg-day
CCSC(C)=O [S-Ethyl thiolacetate],NOAEL,[1],6.7 mg/kg-day
